In US20150057253A1, “ALKYL DERIVATIVES AS SPHINGOSINE-1 PHOSPHATE RECEPTORS MODULATORS” (Allergan, Inc., priority 2013, published 2015):

The molecules below were run against T1, human S1P1 receptor (Homo sapiens, UniProt P21453) (assay: GTP γ35S binding assay for S1P1 activity). Details: membranes of cells stably expressing the S1P1 receptor, test compounds 0.08 to 5,000 nM.
T1 construct: expressed in transfected cells; membrane preparation
Format: biochemical
Method: Compounds were synthesized and tested for S1P1 activity using the GTP γ^35S binding assay. These compounds may be assessed for their ability to activate or block activation of the human S1P1 receptor in cells stably expressing the S1P1 receptor.
GTP γ^35S binding was measured in the medium containing (mM) HEPES 25, pH 7.4, MgCl2 10, NaCl 100, dithiothreitol 0.5, digitonin 0.003%, 0.2 nM GTP γ^35S, and 5 μg membrane protein in a volume of 150 μl. Test compounds were included in the concentration range from 0.08 to 5,000 nM unless indicated otherwise. Membranes were incubated with 100 μM 5′-adenylylimidodiphosphate for 30 min, and subsequently with 10 μM GDP for 10 min on ice. Drug solutions and membrane were mixed, and then reactions were initiated by adding GTP γ^35S and continued for 30 min at 25° C. Reaction mixtures were filtered over Whatman GF/B filters under vacuum, and washed three times with 3 mL of ice-cold buffer (HEPES 25, pH7.4, MgCl2 10 and NaCl 100). Filters were dried and mixed with scintillant, and counted for ^35S activity using a β-counter. Agonist-induced GTP γ^35S binding was obtained by subtracting that in the absence of agonist. Binding data were analyzed using a non-linear regression method. In case of antagonist assay, the reaction mixture contained 10 nM […] in the presence of test antagonist at concentrations ranging from 0.08 to 5000 nM.

T1 sequence (P21453 whole entry): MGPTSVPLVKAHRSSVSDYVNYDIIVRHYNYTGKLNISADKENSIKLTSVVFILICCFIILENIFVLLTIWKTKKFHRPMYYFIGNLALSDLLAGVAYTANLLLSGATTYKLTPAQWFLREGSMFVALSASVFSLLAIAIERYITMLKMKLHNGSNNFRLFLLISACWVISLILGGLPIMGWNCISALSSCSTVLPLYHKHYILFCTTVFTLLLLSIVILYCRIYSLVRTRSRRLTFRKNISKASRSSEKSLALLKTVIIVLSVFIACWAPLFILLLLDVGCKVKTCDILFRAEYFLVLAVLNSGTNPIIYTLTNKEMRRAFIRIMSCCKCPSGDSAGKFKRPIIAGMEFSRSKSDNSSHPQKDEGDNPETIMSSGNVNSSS

Going from Cc1ccc(CC(CCCCc2ccc(CNCCC(=O)O)cc2)c2cccc(Cl)c2)cc1C (stereo not drawn) [3-({4-[5-(3-Chlorophenyl)-6-(3,4-dimethylphenyl)hexyl]benzyl}amino)propanoic acid] to Cc1ccc(CC(CCCc2ccc(CNCCC(=O)O)cc2)c2cccc(Cl)c2)cc1C (stereo not drawn) [3-({4-[4-(3-Chlorophenyl)-5-(3,4-dimethylphenyl)pentyl]benzyl}amino)propanoic acid], the EC50 rises from 20.1 nM to 142 nM (7.1-fold).

Cc1ccc(CC(CCCCc2ccc(CNCCCP(=O)(O)O)cc2)c2cccc(Cl)c2)cc1C (stereo not drawn) [[3-({4-[5-(3-Chlorophenyl)-6-(3,4-dimethylphenyl)hexyl]benzyl}amino)propyl]phosphonic acid] and Cc1ccc(CC(CCCc2ccc(CNCCCP(=O)(O)O)cc2)c2cccc(Cl)c2)cc1C (stereo not drawn) [[3-({4-[4-(3-Chlorophenyl)-5-(3,4-dimethylphenyl)pentyl]benzyl}amino)propyl]phosphonic acid] are within 1.5-fold of each other in EC50: 3.72 nM for the first, 3.09 nM for the second.

Cc1ccc(CC(CCCCc2ccc(CNCCC(=O)O)cc2)c2cc(F)cc(F)c2)cc1C (stereo not drawn) [3-({4-[5-(3,5-Difluorophenyl)-6-(3,4)-dimethylphenyl)hexyl]benzyl}amino)propanoic acid] and Cc1ccc(CC(CCCCc2ccc(CNCCCP(=O)(O)O)cc2)c2cc(F)cc(F)c2)cc1C (stereo not drawn) [[3-({4-[5-(3,5-Difluorophenyl)-6-(3,4-dimethylphenyl)hexyl]benzyl}amino)propyl]phosphonic acid] are within 1.5-fold of each other in EC50: 6.79 nM for the first, 5.09 nM for the second.
